We go through seven molecules from US10925876B2, “Methods for using triazolo-pyrazinyl soluble guanylate cyclase activators in fibrotic disorders” (Merck Sharp & Dohme Corp., priority 2016, dated 2021).

A short description of data set [1]: IV Cassette PK Assay in rats. It counts as in vivo. The following applies: rat, male Wistar-Han rats, plasma, read-out: Cassette PK T1/2 (hr), Imidazo-Pyrazinyl Analog (converted). The method, then: The results were obtained using the following the procedure:
Adult male Wistar-Han rats were fasted overnight and administered a cassette IV dose of mixture of several compounds via a previously implanted catheter in the femoral vein. Animals were allowed access to food 4 h post dose. Blood samples were collected into EDTA-containing tubes at the following time points: 0.03, 0.13, 0.25, 0.5, 1, 2, 4, 8 h post-dose. Blood samples were stored on ice until plasma was harvested by centrifugation. Plasma was transferred to a 96-well plate and stored at −20° C. until analysis. Concentrations of each compound in rat plasma were determined by LC-MS/MS following protein precipitation.

Another data set has as its target T1, sGC α1/β1 heterodimer (Homo sapiens, UniProt Q02108+Q02153).
T1 construct: expressed in transfected cells
T1 sequence (Q02108 1-690): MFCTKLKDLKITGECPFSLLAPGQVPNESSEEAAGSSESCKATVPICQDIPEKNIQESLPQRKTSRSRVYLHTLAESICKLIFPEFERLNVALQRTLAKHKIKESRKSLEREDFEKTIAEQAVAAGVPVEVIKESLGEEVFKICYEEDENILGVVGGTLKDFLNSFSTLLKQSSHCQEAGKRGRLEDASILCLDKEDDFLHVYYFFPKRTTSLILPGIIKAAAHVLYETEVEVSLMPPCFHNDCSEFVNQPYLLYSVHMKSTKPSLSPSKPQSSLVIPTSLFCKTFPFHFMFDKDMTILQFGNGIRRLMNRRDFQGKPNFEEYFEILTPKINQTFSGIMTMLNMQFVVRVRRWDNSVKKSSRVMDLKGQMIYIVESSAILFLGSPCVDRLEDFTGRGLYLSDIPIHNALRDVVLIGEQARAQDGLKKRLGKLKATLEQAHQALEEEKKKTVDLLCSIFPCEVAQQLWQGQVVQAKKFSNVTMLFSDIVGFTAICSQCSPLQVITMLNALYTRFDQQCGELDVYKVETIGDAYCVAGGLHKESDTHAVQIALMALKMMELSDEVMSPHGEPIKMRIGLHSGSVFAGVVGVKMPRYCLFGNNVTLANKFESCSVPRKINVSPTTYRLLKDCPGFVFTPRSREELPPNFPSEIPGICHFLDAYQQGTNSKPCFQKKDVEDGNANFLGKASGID
T1 sequence (Q02153 1-619): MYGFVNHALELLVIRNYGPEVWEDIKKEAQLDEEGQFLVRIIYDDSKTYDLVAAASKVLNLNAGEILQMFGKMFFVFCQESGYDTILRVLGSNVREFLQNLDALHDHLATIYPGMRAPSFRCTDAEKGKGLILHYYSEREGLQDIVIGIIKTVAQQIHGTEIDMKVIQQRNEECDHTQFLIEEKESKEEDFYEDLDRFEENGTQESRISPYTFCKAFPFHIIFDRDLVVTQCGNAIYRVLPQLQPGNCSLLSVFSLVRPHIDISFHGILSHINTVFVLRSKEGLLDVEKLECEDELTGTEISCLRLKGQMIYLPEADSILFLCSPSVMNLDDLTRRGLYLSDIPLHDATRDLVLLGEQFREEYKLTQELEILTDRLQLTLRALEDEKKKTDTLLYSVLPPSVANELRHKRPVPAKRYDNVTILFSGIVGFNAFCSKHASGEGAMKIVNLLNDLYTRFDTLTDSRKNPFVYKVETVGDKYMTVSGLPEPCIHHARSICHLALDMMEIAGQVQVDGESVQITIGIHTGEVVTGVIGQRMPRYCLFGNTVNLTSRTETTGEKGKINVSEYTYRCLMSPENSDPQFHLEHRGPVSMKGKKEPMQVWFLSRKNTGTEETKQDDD
Kind of data set: Cell-Based sGC Functional Assay (CASA Assay), cGMP generation in CHO-K1/sGC cells.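 Also: reference Compound A is a published heme-dependent sGC activator.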 The conditions noted are these: maximum cGMP production of Compound A set to 100% activation, read-out: % Act. (percent activation relative to Compound A). The essentials: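 CHO-K1 cells stably expressing human sGC α1/β1, 4×10^5/mL in EBSS with 5 mM MgCl2, 10 mM HEPES, 0.05% BSA, 0.5 mM IBMX, 2.5% DMSO; compounds 1 h at 37 °C ± 1 μM DETA-NO. cGMP by HTRF, expressed as % of reference Compound A maximum; IP and max fold induction from 4P fit.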

The subject of data set [2] is Spontaneously hypertensive rats (SHR). Briefly: Acute Efficacy in Spontaneously Hypertensive Rats (SHR), telemetry blood pressure. The format is in vivo, rat. The following applies: single oral gavage. A digest of the protocol: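 Male SHR fitted with aortic telemetry transmitters and recovered 14 days; conscious blood pressure sampled 30 s every 10 min. Single oral gavage dose (vehicle 10% transcutol/20% Cremophor/70% water); hourly SBP change versus prior-day vehicle baseline, reported as maximum peak decrease.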

`CC1(c2ccc(F)cn2)C(=O)Nc2nc(-c3cn4ccnc4c(CCC(F)(F)C(F)(F)F)n3)nc(N)c21` (stereo not drawn): the half-life in data set [1] is 1.41 h.

With `Nc1nc(-c2cn3ccnc3c(CCCC(F)(F)F)n2)nc2c1C(c1ccc(C(F)F)cn1)(C1CC1)C(=O)N2` (stereo not drawn), the half-life in data set [1] was 2.12 h.

On to `CCCc1nc(-c2nc(O)c3c(n2)NC(=O)C3(C)c2ccc(Cl)c(F)c2)cn2ncnc12` (stereo not drawn) [Example 166B, 5-(4-chloro-3-fluorophenyl)-4-hydroxy-5-methyl-2-(8-propyl-[1,2,4]triazolo[1,5-a]pyrazin-6-yl)-5H-pyrrolo[2,3-d]pyrimidin-6(7H)-one], for which the Emax on sGC α1/β1 heterodimer amounted to 117%. Besides, the “Maximum peak decrease of systolic blood pressure (SBP) in SHR, Cat.” value (“Maximum peak decrease” for short) in data set [2] (P.O. 3 mpk) is listed as “B (Category B=SBP in SHRs 20-40 mmHg)”.

Regarding `CC(C)Cc1nc(-c2ncc3c(n2)NC(=O)[C@@]3(C)c2ccc(F)cc2)cn2ncnc12` [Example 173A, (S)-5-(4-fluorophenyl)-2-(8-isobutyl-[1,2,4]triazolo[1,5-a]pyrazin-6-yl)-5-methyl-5,7-dihydro-6H-pyrrolo[2,3-d]pyrimidin-6-one], the Emax on sGC α1/β1 heterodimer is 176%. Besides, the “Maximum peak decrease” value in data set [2] (P.O. 1 mpk) is reported as “A (Category A=SBP in SHRs <20 mmHg)”.

Take `C[C@@]1(c2ccc(F)cc2)C(=O)Nc2nc(-c3cn4ncnc4c(CCC(F)(F)C(F)(F)F)n3)nc(C(N)=O)c21` [Example 177A, 5-(4-Fluorophenyl)-5-methyl-6-oxo-2-(8-(3,3,4,4,4-pentafluorobutyl)-[1,2,4]triazolo[1,5-a]pyrazin-6-yl)-6,7-dihydro-5H-pyrrolo[2,3-d]pyrimidine-4-carboxamide]: at sGC α1/β1 heterodimer, the Emax came out at 168%. Moreover, the “Maximum peak decrease” value in data set [2] (P.O. 1 mpk) is “C (Category C=SBP in SHRs >40 mmHg)”.

In the case of `NC(=O)c1nc(-c2cn3ncnc3c(CCCC(F)(F)F)n2)nc2c1C(c1ccc(C(F)(F)F)cn1)(C1CC1)C(=O)N2` (stereo not drawn) [Example 178A], the Emax at sGC α1/β1 heterodimer turned out to be 108%. Further, the “Maximum peak decrease” value in data set [2] (P.O. 1 mpk) is on record as “B (Category B=SBP in SHRs 20-40 mmHg)”.

Regarding `CC1(c2ccc(C(F)(F)F)cn2)C(=O)Nc2nc(-c3cn4ncnc4c(CCCC(F)(F)F)n3)nc(C(N)=O)c21` (stereo not drawn) [Example 179B, 5-methyl-6-oxo-2-(8-(4,4,4-trifluorobutyl)-[1,2,4]triazolo[1,5-a]pyrazin-6-yl)-5-(5-(trifluoromethyl)pyridin-2-yl)-6,7-dihydro-5H-pyrrolo[2,3-d]pyrimidine-4-carboxamide], at sGC α1/β1 heterodimer, the Emax was determined as 101%. In addition, the “Maximum peak decrease” value in data set [2] (P.O. 0.3 mpk) is on record as “B (Category B=SBP in SHRs 20-40 mmHg)”.
